Tests used:
[1] = NOAEL (No Observed Adverse Effect Level), Til et al. 1997
From the text: Food and Drug Administration GRAS Notice No. 889 Spermidine-Rich Wheat Germ Extract, the entirety of which is incorporated herein by reference. […] Til et al., Food and Chemical Toxicology 1997, v. 35, p. 337-348.

[2] = Til et al., Food and Chemical Toxicology 1997; cited from earlier work
[3] = animal models; 10 minutes after; cited from earlier work

Compound | NOAEL expressed for a 70 kg person [1] [mg/day] | NOAEL (No Observed Adverse Effect Level) [2] [mg/kg body weight/day] | fraction of amount that reached the lumen found in the portal vein [3]
NCCCCNCCCN [spermidine] | ~470 | 83 | Approximately 70%
NCCCNCCCCNCCCN [spermine] | ~106 | 1.52 | Approximately 70%
